Earlier results in patent US7638651B2, “Substituted cyclohexanones” (Auspex Pharmaceuticals, priority 2007, dated 2009).

Legend:
[1] = for half-life: ketamine: depending on the mode of administration

CN[C@]1(c2ccccc2Cl)CCCCC1=O (single isomer, unassigned) [S-(+) isomer]
potency relative to the R-(−) isomer (more potent than the R-(−) isomer): approximately four

CNC1(c2ccccc2Cl)CCCCC1=O (centres unmarked) [Ketamine]
blood to plasma ratio ([1]; in vivo): ~0.82
half-life [1]: two to about five

NC1(c2ccccc2Cl)CCCCC1=O (centres unmarked) [Norketamine, N-desmethylketamine]
potency relative to the parent drug (as potent as the parent drug (ketamine)): roughly one third
half-life [1]: about five
